We go through one compound from US20250387415A1, “COMPOSITIONS OF COPPER COMPLEXES” (University of Lancashire, priority 2022, published 2025).

Data set [1] can be described thus: Solubility limit in cubosomes solution (F03 nanostructured dispersions), sedimentation. It counts as physicochemical.
Text: The numbers in mg indicate CuASP content in 10 g cubosomes solution (formed of 0.5 g lipid+9.5 g of 0.5% F127 solution in water).
For data set [2] the following is noted: background; cited from earlier work.
For data set [3] the following is noted: background; cited from earlier work. The source holds these as a separate data set.
The nature of data set [4]: Maximum copper complex content (solubility / encapsulation) of lipid formulations. It counts as physicochemical.
Experimental: Spatula or similar tools were used to blend the constituents until homogeneous. • Mixtures were heated (to 40-60° C.) using block heater.
A short description of data set [5]: Centrifugation (200 rpm for 5 min) of F01 encapsulation mixtures. The format is physicochemical. The following applies: encapsulated mixture in MO or DU, visibly homogeneous at room temperature before. As to the method: It was in fact possible to add up to 126 mg of CuASP in 1 g of MO (as per F01-CuASP-MO-E) and up to about 130 mg in 1 g of DU (as per F01-CuASP-DU-E) (FIG. 4). […] With mere mixing by spatula the formulation was again homogeneous thereby encapsulating excess CuASP in the lipid phase.
With mere mixing by spatula the formulation was again homogeneous thereby encapsulating excess CuSL in the lipid phase.

For data set [6] the following is noted: background; cited from earlier work. This is another data set of the same source.
A short description of data set [7]: Hydrated lipid systems (F02): transparency check method for maximum solubility / encapsulation. It counts as physicochemical.
Text: Briefly, 1 mm thick transparent glass slide with a small well was filled with corresponding formulation and its ability to see-through was checked, as shown by photographs referenced in Table 2.
Briefly, 1 mm thick transparent glass slide with a small well was filled with corresponding formulation and its ability to see-through was checked, as shown by photographs referenced in Table 3.

Take `CC(=O)Oc1ccccc1C(=O)[O-].CC(=O)Oc1ccccc1C(=O)[O-].CC(=O)Oc1ccccc1C(=O)[O-].CC(=O)Oc1ccccc1C(=O)[O-].[Cu+2].[Cu+2]` [CuASP, Copper (II) Aspirinate]: in data set [1] (10 g cubosomes (0.5 g lipid + 9.5 g of 0.5% F127 solution)), the “solubility limit in cubosomes solution per g of lipid” value is recorded as 50 mg/g of lipid. Moreover, in data set [1] (in 10 g cubosomes (0.5 g lipid + 9.5 g of 0.5% F127 solution in water)), the “content that was sedimented in cubosomes solution” value is recorded as 26 mg. Further, the “irritancy to digestive track compared to aspirin” value in data set [2] is “less irritant”. Besides, the solubility in water entry in data set [3] is given as “poorly soluble in water”. Also, in data set [4] (non-aqueous lipids (MO, DU), F01), the solubility in lipids was 1 mg/g. Further, the “amount possible to add (encapsulation) in 1 g of DU” value in data set [4] (non-aqueous, in 1 g of DU (F01-...-DU-E)) is given as “up to 130 mg”. In addition, in data set [4] (non-aqueous, in 1 g of MO (F01-...-MO-E)), the “amount possible to add (encapsulation) in 1 g of MO” value is recorded as “up to 126 mg”. The sedimentation after centrifugation entry in data set [5] was “some part of the powder sedimented”. Besides, the “potency as an anti-inflammatory agent compared to aspirin” value in data set [6] is “more potent”. Besides, the “amount encapsulated in DU cubic phase” value in data set [7] (in 1.25 g cubic phase) was 400 mg. Also, the “amount encapsulated in DU cubic phase per g of lipid” value in data set [7] (viscous cubic phase in presence of water) is given as “About 533 mg per g of lipid”.
